From patent publication US11911396B2, “Use of compound in preparation of drug for treating cerebral small vessel disease” (GUANGZHOU CELLPROTEK PHARMACEUTICAL CO., LTD, priority 2017, dated 2024)

How the values were obtained:
CD163 = test: Immunofluorescence of CD163 in prefrontal cortex brain tissue, acute hypobaric hypoxia model; format: in vivo, cynomolgus monkeys; conditions: FIGS. 5A and 5B
From the text: (§1) FIG. 5. […] A. Immunofluorescence imaging of CD163 and Iba-1 in the brain tissue of cynomolgus monkeys. B. Statistics of relative fluorescence intensity of CD163 and Iba-1. C. Correlation analysis of relative fluorescence intensity of CD163 and Iba-1. NN: Normobaric Normoxia group; HH: Hypobaric Hypoxia group; HH+Triol: Hypobaric Hypoxia with Triol administration group; HH+PROG: Hypobaric Hypoxia with progesterone administration group. One-way ANOVA analysis and Dunnutt's t test were used to perform statistical tests, and in the latter each group was compared with the HH group, ***, p<0.001.
(§2) The thickness of paraffin sections was 5 μm. For fresh paraffin sections, the sections were dried at 37° C. overnight and then dried at 55° C. for 30 minutes. The sections were quickly placed in xylene for dewaxing. After fully dewaxing with xylene for 10 min for 3 times, absolute ethanol-95% ethanol-90% ethanol-80% ethanol-70% ethanol-50% ethanol-ddH2O were successively used for gradient rehydration. After rehydration, the sections were placed in EDTA antigen repair solution for microwave high temperature repair. After the repair was completed, it was allowed naturally cool down to room temperature. […] NIS-Elements Analysis software was used to analyze the fluorescence intensity of confocal images, which was then normalized with the fluorescence intensity per unit area according to the built-in scale. […]

Iba1 = test: Immunofluorescence of Iba1 in prefrontal cortex brain tissue, acute hypobaric hypoxia model; format: in vivo, cynomolgus monkeys; conditions: FIG. 5
From the text: as §1, §2

CC(=O)[C@H]1CC[C@H]2[C@@H]3CCC4=CC(=O)CC[C@]4(C)[C@H]3CC[C@]12C [progesterone, reference compound]
down-regulation of CD163 expression caused by acute hypobaric hypoxia (CD163): did not cancel the inhibition
Iba1 expression (Iba1): increased
